Reference: US6972319B1, “Pituitary adenylate cyclase activating peptide (PACAP)receptor 3 (R3) agonists and their pharmacological methods of use” (priority 1999, dated 2005)
No end group written: not given here.

Biological target: T1, PACAP-R2 (Homo sapiens, UniProt P32241)
T1 construct: expressed in transfected cells; host or cells: CHO cells
T1 sequence (P32241 31-457): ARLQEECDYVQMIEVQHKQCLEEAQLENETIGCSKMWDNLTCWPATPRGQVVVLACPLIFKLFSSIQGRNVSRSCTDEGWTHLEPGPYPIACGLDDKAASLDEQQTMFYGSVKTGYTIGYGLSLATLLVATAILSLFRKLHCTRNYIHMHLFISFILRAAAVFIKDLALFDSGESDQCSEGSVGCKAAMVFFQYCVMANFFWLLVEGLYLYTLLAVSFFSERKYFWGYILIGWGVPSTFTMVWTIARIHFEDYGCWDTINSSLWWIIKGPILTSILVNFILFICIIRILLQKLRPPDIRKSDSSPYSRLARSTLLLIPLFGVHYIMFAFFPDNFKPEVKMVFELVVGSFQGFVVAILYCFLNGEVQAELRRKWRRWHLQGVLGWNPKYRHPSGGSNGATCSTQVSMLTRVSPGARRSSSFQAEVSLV
Assay: Cyclic AMP SPA on CHO cells transfected with PACAP-R2
Assay type: cell-based
Conditions: cAMP SPA, concentration at which 50% of maximum PACAP27 activity is achieved, NA = no detectable activities, read-out: R2 EC50
Method: CHO cells expressing the PACAP R3 were plated in 96-well plates (Costar) at 8×10^4 cell/well and grown at 37 C. for 24 hours in α MEM+nucleosides+glutamine (Giobco BRL), 10% FBS, 100 μg/ml Pen/Strep, 0.3 mg/ml glutamine, 1 mM HEPES, 0.5 mg/ml Geneticin (Gibco BRL). The media was removed and the plates were washed with PBS. The cells were incubated with a peptide, in Hepes-PBS-BSA with 0.4 mg/mlSoybean Trypsin Inhibitor, 0.5 mg/ml Bacitracin, 100 uM IBMX, for 15 min at 37 C. Cyclic AMP in the cell extracts was quantitated using the cAMP SPA direct screening assay system (Amersham Pharmacia Biotech Inc, Piscataway, N.J.,). The peptides shown in Table 3 were assayed for cAMP activity.
EC50 is defined as the concentration of the polypeptide at which 50% of maximum PACAP27 activity is achieved. “NA” denotes no detectable activities. “R3 Selectivity” is derived from the ratio of EC50 at R2 versus EC50 at R3.

Compound | EC50
CC[C@H](C)[C@H](NC(=O)[C@H](CO)NC(=O)[C@H](CC(N)=O)NC(=O)[C@H](CC(C)C)NC(=O)[C@H](Cc1ccc(O)cc1)NC(=O)[C@H](CCCCN)NC(=O)[C@H](CCCCN)NC(=O)[C@H](C)NC(=O)[C@H](C)NC(=O)[C@H](CCSC)NC(=O)[C@H](CCC(N)=O)NC(=O)[C@H](CCCCN)NC(=O)[C@H](CCCNC(=N)N)NC(=O)[C@H](CC(C)C)NC(=O)[C@H](CCCNC(=N)N)NC(=O)[C@@H](NC(=O)[C@H](Cc1ccc(O)cc1)NC(=O)[C@H](CC(N)=O)NC(=O)[C@H](CC(=O)O)NC(=O)[C@@H](NC(=O)[C@H](Cc1ccccc1)NC(=O)[C@@H](NC(=O)[C@H](C)NC(=O)[C@H](CC(=O)O)NC(=O)[C@H](CO)NC(=O)[C@@H](N)Cc1c[nH]cn1)C(C)C)[C@@H](C)O)[C@@H](C)O)C(=O)N[C@@H](CCCCN)C(=O)N[C@@H](CC(N)=O)C(=O)N[C@@H](CCCCN)C(=O)N[C@@H](CCC(N)=O)C(=O)O [Peptide R3P166] | 50 nM
CC[C@H](C)[C@H](NC(=O)[C@H](CO)NC(=O)[C@H](CC(N)=O)NC(=O)[C@H](CC(C)C)NC(=O)[C@H](Cc1ccc(O)cc1)NC(=O)[C@H](CCCCN)NC(=O)[C@H](CCCCN)NC(=O)[C@H](C)NC(=O)[C@H](C)NC(=O)[C@H](CCSC)NC(=O)[C@H](CCC(N)=O)NC(=O)[C@H](CCCCN)NC(=O)[C@H](CCCNC(=N)N)NC(=O)[C@H](CC(C)C)NC(=O)[C@H](CCCNC(=N)N)NC(=O)[C@@H](NC(=O)[C@H](Cc1ccc(O)cc1)NC(=O)[C@H](CC(N)=O)NC(=O)[C@H](CC(=O)O)NC(=O)[C@@H](NC(=O)[C@H](Cc1ccccc1)NC(=O)[C@@H](NC(=O)[C@H](C)NC(=O)[C@H](CC(=O)O)NC(=O)[C@H](CO)NC(=O)[C@@H](N)Cc1c[nH]cn1)C(C)C)[C@@H](C)O)[C@@H](C)O)C(=O)N[C@@H](CCCCN)C(=O)N[C@@H](CC(N)=O)C(=O)N[C@@H](CCCCN)C(=O)N[C@@H](Cc1ccc(O)cc1)C(=O)O [Peptide R3P171] | 80 nM
HSDAVFTDNYTRLRKQLAAKKYLNDIKNGGT [Peptide R3P24] | 45 nM
CC[C@H](C)[C@H](NC(=O)[C@H](CO)NC(=O)[C@H](CC(N)=O)NC(=O)[C@H](CC(C)C)NC(=O)[C@H](Cc1ccc(O)cc1)NC(=O)[C@H](CCCCN)NC(=O)[C@H](CCCCN)NC(=O)[C@H](C)NC(=O)[C@H](C)NC(=O)[C@H](CCSC)NC(=O)[C@H](CCC(N)=O)NC(=O)[C@H](CCCCN)NC(=O)[C@H](CCCNC(=N)N)NC(=O)[C@H](CC(C)C)NC(=O)[C@H](CCCNC(=N)N)NC(=O)[C@@H](NC(=O)[C@H](Cc1ccc(O)cc1)NC(=O)[C@H](CC(N)=O)NC(=O)[C@H](CC(=O)O)NC(=O)[C@@H](NC(=O)[C@H](Cc1ccccc1)NC(=O)[C@@H](NC(=O)[C@H](C)NC(=O)[C@H](CC(=O)O)NC(=O)[C@H](CO)NC(=O)[C@@H](N)Cc1c[nH]cn1)C(C)C)[C@@H](C)O)[C@@H](C)O)C(=O)N[C@@H](CCCCN)C(=O)N[C@@H](CC(N)=O)C(=O)N[C@@H](C)C(=O)N[C@@H](CCCNC(=N)N)C(=O)O [Peptide R3P134] | 40 nM
CC[C@H](C)[C@H](NC(=O)[C@H](CO)NC(=O)[C@H](CC(N)=O)NC(=O)[C@H](CC(C)C)NC(=O)[C@H](Cc1ccc(O)cc1)NC(=O)[C@H](CCCCN)NC(=O)[C@H](CCCCN)NC(=O)[C@H](C)NC(=O)[C@H](C)NC(=O)[C@H](CCSC)NC(=O)[C@H](CCC(N)=O)NC(=O)[C@H](CCCCN)NC(=O)[C@H](CCCNC(=N)N)NC(=O)[C@H](CC(C)C)NC(=O)[C@H](CCCNC(=N)N)NC(=O)[C@@H](NC(=O)[C@H](Cc1ccc(O)cc1)NC(=O)[C@H](CC(N)=O)NC(=O)[C@H](CC(=O)O)NC(=O)[C@@H](NC(=O)[C@H](Cc1ccccc1)NC(=O)[C@@H](NC(=O)[C@H](C)NC(=O)[C@H](CC(=O)O)NC(=O)[C@H](CO)NC(=O)[C@@H](N)Cc1c[nH]cn1)C(C)C)[C@@H](C)O)[C@@H](C)O)C(=O)N[C@@H](CCCCN)C(=O)N[C@@H](CC(N)=O)C(=O)N[C@@H](CCCCN)C(=O)N[C@@H](Cc1c[nH]c2ccccc12)C(=O)O [Peptide R3P170] | 20 nM
CC[C@H](C)[C@H](NC(=O)[C@H](CO)NC(=O)[C@H](CC(N)=O)NC(=O)[C@H](CC(C)C)NC(=O)[C@H](Cc1ccc(O)cc1)NC(=O)[C@H](CCCCN)NC(=O)[C@H](CCCCN)NC(=O)[C@H](C)NC(=O)[C@H](C)NC(=O)[C@H](CCSC)NC(=O)[C@H](CCC(N)=O)NC(=O)[C@H](CCCCN)NC(=O)[C@H](CCCNC(=N)N)NC(=O)[C@H](CC(C)C)NC(=O)[C@H](CCCNC(=N)N)NC(=O)[C@@H](NC(=O)[C@H](Cc1ccc(O)cc1)NC(=O)[C@H](CC(N)=O)NC(=O)[C@H](CC(=O)O)NC(=O)[C@@H](NC(=O)[C@H](Cc1ccccc1)NC(=O)[C@@H](NC(=O)[C@H](C)NC(=O)[C@H](CC(=O)O)NC(=O)[C@H](CO)NC(=O)[C@@H](N)Cc1c[nH]cn1)C(C)C)[C@@H](C)O)[C@@H](C)O)C(=O)N[C@@H](CCCCN)C(=O)N[C@@H](CC(N)=O)C(=O)N[C@@H](CCCCN)C(=O)N[C@@H](CCSC)C(=O)O [Peptide R3P163] | 40 nM
CC[C@H](C)[C@H](NC(=O)[C@H](CO)NC(=O)[C@H](CC(N)=O)NC(=O)[C@H](CC(C)C)NC(=O)[C@H](Cc1ccc(O)cc1)NC(=O)[C@H](CCCCN)NC(=O)[C@H](CCCCN)NC(=O)[C@H](CCSC)NC(=O)[C@H](C)NC(=O)[C@H](CCSC)NC(=O)[C@H](CCC(N)=O)NC(=O)[C@H](CCCCN)NC(=O)[C@H](CCCNC(=N)N)NC(=O)[C@H](CC(C)C)NC(=O)[C@H](CCCNC(=N)N)NC(=O)[C@@H](NC(=O)[C@H](Cc1ccc(O)cc1)NC(=O)[C@H](CC(N)=O)NC(=O)[C@H](CC(=O)O)NC(=O)[C@@H](NC(=O)[C@H](Cc1ccccc1)NC(=O)[C@@H](NC(=O)[C@H](C)NC(=O)[C@H](CC(=O)O)NC(=O)[C@H](CO)NC(=O)[C@@H](N)Cc1c[nH]cn1)C(C)C)[C@@H](C)O)[C@@H](C)O)C(=O)N[C@@H](CCCCN)C(=O)N[C@@H](CC(N)=O)C(=O)N[C@@H](CCCCN)C(=O)N[C@@H](CCCNC(=N)N)C(=O)O [Peptide R3P106] | 2 nM
CC[C@H](C)[C@H](NC(=O)[C@H](CO)NC(=O)[C@H](CC(N)=O)NC(=O)[C@H](CC(C)C)NC(=O)[C@H](Cc1ccc(O)cc1)NC(=O)[C@H](CCCCN)NC(=O)[C@H](CCCCN)NC(=O)[C@H](C)NC(=O)[C@H](C)NC(=O)[C@H](CCSC)NC(=O)[C@H](CCC(N)=O)NC(=O)[C@H](CCCCN)NC(=O)[C@H](CCCNC(=N)N)NC(=O)[C@H](CC(C)C)NC(=O)[C@H](CCCNC(=N)N)NC(=O)[C@@H](NC(=O)[C@H](Cc1ccc(O)cc1)NC(=O)[C@H](CC(N)=O)NC(=O)[C@H](CC(=O)O)NC(=O)[C@@H](NC(=O)[C@H](Cc1ccccc1)NC(=O)[C@@H](NC(=O)[C@H](C)NC(=O)[C@H](CC(=O)O)NC(=O)[C@H](CO)NC(=O)[C@@H](N)Cc1c[nH]cn1)C(C)C)[C@@H](C)O)[C@@H](C)O)C(=O)N[C@@H](Cc1ccc(O)cc1)C(=O)N[C@@H](CC(N)=O)C(=O)N[C@@H](CCCCN)C(=O)N[C@@H](CCCNC(=N)N)C(=O)O [Peptide R3P133] | 8 nM
CC[C@H](C)[C@H](NC(=O)[C@H](CO)NC(=O)[C@H](CC(N)=O)NC(=O)[C@H](CC(C)C)NC(=O)[C@H](Cc1ccc(O)cc1)NC(=O)[C@H](CCCCN)NC(=O)[C@H](CCCCN)NC(=O)[C@@H](NC(=O)[C@H](C)NC(=O)[C@H](CCSC)NC(=O)[C@H](CCC(N)=O)NC(=O)[C@H](CCCCN)NC(=O)[C@H](CCCNC(=N)N)NC(=O)[C@H](CC(C)C)NC(=O)[C@H](CCCNC(=N)N)NC(=O)[C@@H](NC(=O)[C@H](Cc1ccc(O)cc1)NC(=O)[C@H](CC(N)=O)NC(=O)[C@H](CC(=O)O)NC(=O)[C@@H](NC(=O)[C@H](Cc1ccccc1)NC(=O)[C@@H](NC(=O)[C@H](C)NC(=O)[C@H](CC(=O)O)NC(=O)[C@H](CO)NC(=O)[C@@H](N)Cc1c[nH]cn1)C(C)C)[C@@H](C)O)[C@@H](C)O)C(C)C)C(=O)N[C@@H](CCCCN)C(=O)N[C@@H](CC(N)=O)C(=O)N[C@@H](CCCCN)C(=O)N[C@@H](CCCNC(=N)N)C(=O)O [Peptide R3P113] | 3 nM
